# Data from patent US20150313801A1, “DETECTION OF CARIOUS DENTIN TISSUE AND REMOVAL THEREOF BY MEANS OF A DENTAL INSTRUMENT” (RLS GLOBAL AB, priority 2012, published 2015).
# Entries after “also recorded” stand apart in the source; their conditions may differ.
# Experiments:
# [1] = tested on: carious dentin tissue in infected teeth; assay: Staining of caries-infected tooth slices, retention after NaCl and NaOH incubation (Example 2); conditions: for colouring of tooth slice after NaCl and NaOH treatment (Day 4): after 1 M NaCl and 0.5 M NaOH overnight incubations, visible light, UV or fluorescence microscopy; for mode of binding to carious tissue in infected teeth (conclusion): conclusion of Example 2
# Procedure: Experiments were performed during 4 days. Whole caries infected tooth was added to an ortho acryl gel, which after hardening was used as a holder prior to […] of brand Zaw Micro Tone, German). Slices, having a thickness of 150 μm, were left over night in each colour to be tested (Day one). On the second day, the colours were washed out by rinsing the slices with MQ water and the teeth sections were photographed under either a microscope (6.7×; visible light), in UV (no microscope) or under a fluorescence microscope (100×). Thereafter, an aqueous salt solution (NaCl, 1 M) was added to the slices and incubated overnight. On the third day the slices were washed with MQ water and thereafter the same detection procedures were used as described above. Finally the tooth slices were exposed to an aqueous solution of NaOH (0.5 M) over night. The washing and detection path were then repeated as described previously (Day 4).
# carious dentin tissue [2] = assay: TOF-SIMS of carious dentin tissue treated with hydrazine derivative (Example 4)
# Procedure: FTIR-ATR and TOF-SIMS analyses were performed on a sample group consisting of carious tissue inner most layers selected and estimated with an exactness of a working dentist. Samples were pooled from 4-6 teeth of inner layer of carious tissue (37 mg). The pooled sample was divided into two subgroups where one was exposed to the hydrazine derivate Lucifer Yellow and further analysed with TOF-SIMS and the other only analysed with FTIR-ATR. An aqueous solution of the hydrazine derivate Lucifer Yellow (1.8 mM) was added to the inner layer carious tissue (19 mg) and after 1 hour exposure washed with an aqueous solution of NaOH (0.5 M) and purified water before dried over vacuum. […] Each sample was attached to double side tape and analysed with a TOF-SIMS instrument (TOF-SIMS IV, CAMECA/IONTOF, GmbH, Germany). Positive secondary ion mass spectra were recorded from different areas of the sample at a size of 200×200 μm^2 and separated in a mass analyser and next compared with known mass spectra from the Ion Spec application (IonTof, GmbH, Germany, ver. 4.1) linked with the TOF-SIMS instrument. Negative secondary ion mass spectra were also recorded but gave no further information. […]
# The upper spectrum was recorded for the sample of carious dentin tissue that had been milled but not subjected to treatment with hydrazine (i.e. the carious dentin tissue reference). […]
# healthy dentin tissue [3] = assay: TOF-SIMS of healthy dentin tissue treated with hydrazine derivative (Example 4); conditions: TOF-SIMS positive spectra
# healthy dentin tissue [4] = assay: FTIR of healthy dentin tissue treated with hydrazine derivative (Example 3); parameters: species or system human; conditions: 13 mM aqueous solution overnight, FIGS. 3a and 3c
# From the text: (§1) Extracted permanent human teeth with no previous dental restorations were selected due to their severe carious tissue status and analysed with FTIR within one week after extraction. The outermost part of the carious dental lesions was removed. The remaining dental carious tissue was divided into two layers; one outer layer with discoloured, soft and infected dental carious tissue and one inner layer that was excavated down to the observed uncoloured hard surface of the remaining healthy dentin controlled by tactile procedures.
# (§2) Healthy dentin tissue and carious dentin tissue from the innermost layer were collected. This healthy dentin tissue sample and carious dentin tissue sample were then each divided into three samples.
# The healthy dentin tissue sample (26 mg) was divided and treated as follows. […] Fluorescence of bounded hydrazine derivate Lucifer Yellow was checked by a UV lamp. […] The third sample, hereinafter denominated sample S3, (7 mg) and the last procedure was treated with NaBH4 (0.5 M in ethanol) and washed with concentrated ethanol to reduce aldehydes and ketones before the addition of an aqueous solution of the hydrazine derivate Lucifer Yellow (13 mM), repeated rinsing with purified water before dried and analysed.
# (§3) Thus, in total 6 samples (three from the healthy dentin tissue and three from the carious dentin tissue) were analysed with FTIR within one week after extraction. […]
# [5] = tested on: smear layer on healthy dentin tissue; assay: Staining of drilled dentin of an extracted healthy tooth, smear layer detection (Examples 7 and 8)
# Procedure: An extracted tooth in a healthy state with no previous dental restoration was subjected to drilling with the dental drill Cera Bur at a speed of approximately 1500 rpm. The dental drill Cera Bur was from the company Comet USA LLC and is described in EP 1 849 429. […] Therefore, the tooth was subjected to a high-speed dental drill resulting in a cavity exposing dentin tissue, i.e. a dentin tooth surface. The high speed dental drill was the high-speed dental drill Diamond/Fissure bur OB 301A FG from Plandent Forssbergs Dental, Sweden. […] The staining was visually detected using the instrument PoliLed SN06LP1121 operated at 460-470 nm, Faro.
# The thus formed smear layer stained with Lucifer Yellow was subjected to drilling with the dental drill Cera Bur at a speed of approximately 1500 rpm after which rinsing with water took place. […] It was concluded that the Cera Bur drill removed the smear layer and the resulting dentin tissue was free of smear layer.
# It was concluded that the dentin tooth surface was free of smear layer. […]
# An extracted tooth in a healthy state with no previous dental restoration was subjected to a high-speed dental drill resulting in a cavity exposing dentin tissue, i.e. a dentin tooth surface. […] The staining was visually detected using the instrument PoliLed SN06LP1121 operated at 460-470 nm, Faro. […]
# carious dentin tissue [6] = assay: FTIR of carious dentin tissue treated with hydrazine derivative (Example 3); parameters: species or system human
# From the text: as §1, §2
# The healthy dentin tissue sample (26 mg) was divided and treated as follows. […] Fluorescence of bounded hydrazine derivate Lucifer Yellow was checked by a UV lamp. […] The third sample, hereinafter denominated sample S3, (7 mg) and the last procedure was treated with NaBH4 (0.5 M in ethanol) and washed with concentrated ethanol to reduce aldehydes and ketones before the addition of an aqueous solution of the hydrazine derivate Lucifer Yellow (13 mM), repeated rinsing with purified water before dried and analysed. […]
# as §3
# carious dentin tissue [7] = assay: Staining of carious dentin of a pre molar tooth combined with high-speed dental drill (Example 6); conditions: 15-50 mM aqueous solution; Diamond/Fissure bur OB 301A FG; repeated several times
# Procedure: Carious dentin tissue of a pre molar tooth stained with an aqueous solution of the hydrazine derivative Alexa 594 in a concentration of 15-50 mM was subjected to mechanical treatment by a dental drill until no staining could be visually detected. The dental drill was a high-speed dental drill Diamond/Fissure bur OB 301A FG from Plandent Forssbergs Dental, Sweden. […] The stained surface was subjected to drilling until no staining could be visually detected. A dentist examined the surface visually and with a tactile instrument and concluded that the surface was free of caries. […] Again, drilling of the stained surface took place until no staining could be observed. […] Drilling and staining as described above in this example was repeated several times. […] This is in contrast to the successful selective detection and removal of carious dentin tissue using a hydrazine derivative in combination with a chemical means for treatment of carious dentin tissue as described in Example 5.
# carious dentin tissue [8] = assay: Staining of carious dentin of a pre molar tooth combined with Carisolv excavation (Example 5)
# Procedure: Carious dentin tissue of a pre molar tooth was treated with Carisolv® to obtain a cavity and subsequently stained with an aqueous solution of the hydrazine derivative Alexa 594. The concentration of the aqueous solution of the hydrazine derivative Alexa 594 was 15-50 mM. […] Carisolv® was added to the cavity and excavation took place with a hand instrument from Mediteam Dental AB to reach a carious free level. […] A dentist performed tactile control of this surface and confirmed that the surface was free of caries.
# The slightly stained surface was subjected to treatment with Carisolv® followed by excavation with a hand instrument. […] It was therefore concluded that all carious dentin tissue of the tooth had been removed. It was concluded that a hydrazine derivative such as Alexa 594 can be used in combination with a chemical means for carious dentin tissue such as Carisolv® for selective detection and removal of carious dentin tissue.
compound,measurement,setting,value
NNC(=O)CSCC(=O)Nc1ccc(-c2c3ccc(=O)cc-3oc3cc(O)ccc23)c(C(=O)O)c1 [5-(2-2-hydrazinyl-2-oxoethylthio)acetamido)-2-(3-hydroxy-6-oxo-6H-xanthen-9-yl)benzoic acid],colouring of tooth slice after NaCl and NaOH treatment (Day 4),[1],still contained colourants; also recorded: staining
same,mode of binding to carious tissue in infected teeth (conclusion),[1],bind irreversibly
NNC(=O)NN1C(=O)c2cc(S(=O)(=O)O)cc3c(N)c(S(=O)(=O)O)cc(c23)C1=O [Lucifer Yellow],selectivity carious versus healthy dentin tissue,carious dentin tissue [2]; TOF-SIMS conclusion,selectively reacts with carious dentin tissue
same,bonding to carious dentin tissue,"carious dentin tissue [2]; TOF-SIMS positive spectra, 1.8 mM, 1 hour exposure, NaOH wash",covalently bonded
same,reaction with healthy dentin,healthy dentin tissue [3],did not react with healthy dentin
same,colouring of tooth slice after NaCl and NaOH treatment (Day 4),[1],still contained colourants
same,colouring of tooth slice after NaCl and NaOH treatment (Day 4),[1]; listed as Lucifer Yellow sodium salt,staining
same,mode of binding to carious tissue in infected teeth (conclusion),[1],bind irreversibly
same,reaction with healthy dentin tissue,healthy dentin tissue [4],no reaction takes place
same,staining after drilling the smear layer with round type steel dental drill,"[5]; aqueous solution 15-50 mM, 1500 rpm, rinsing with water",resulted in staining
same,staining of smear layer (conclusion),[5]; smear layer formed by high-speed dental drill on healthy tooth,stained this smear layer
same,selectivity carious versus healthy dentin tissue,carious dentin tissue [6]; FTIR conclusion,selectively reacts with carious dentin tissue
same,reaction with carious dentin tissue,"carious dentin tissue [6]; FTIR, peak at 1740 cm-1 no longer present, FIG. 3d",reaction has taken place
CC(=O)Nc1cc(S(=O)(=O)[O-])cc2cc(S(=O)(=O)[O-])c(/N=N/c3ccccc3)c(O)c12.[Na+].[Na+] [Acid red 1],staining of tooth slice after incubation with 1 M NaCl,"[1]; 150 μm slices left overnight in colour, MQ rinse, 1 M NaCl overnight",only little staining remained
same,colouring of tooth slice after NaCl and NaOH treatment (Day 4),[1],no colouring
same,mode of binding to carious tissue in infected teeth (conclusion),[1],binds in a reversible way
same,effect of rinsing on dye-labelled carious dentin tissue,"[1]; rinsing, general statement of the description",release of the dye bonded to the carious dentin tissue
Cc1c(CC(=O)NN)c(=O)oc2cc(N)c(S(=O)(=O)O)cc12 [Alexa 350],colouring of tooth slice after NaCl and NaOH treatment (Day 4),[1],still contained colourants
same,mode of binding to carious tissue in infected teeth (conclusion),[1],bind irreversibly
"6-(2-carboxy-5-(hydrazinecarbonyl)phenyl)-1,2,2,10,10,11-hexamethyl-2,10-dihydro-1H-pyrano[3,2-g]diquinoline-11-ium-4,8-diyl)methanesulfonate [Alexa Fluor® 594]",staining after drilling with high-speed dental drill,carious dentin tissue [7],staining always took place
same,colouring of tooth slice after NaCl and NaOH treatment (Day 4),[1],still contained colourants
same,colouring of tooth slice after NaCl and NaOH treatment (Day 4),[1]; listed as Alexa Fluor 594 ®,staining
same,mode of binding to carious tissue in infected teeth (conclusion),[1],bind irreversibly
same,detection of carious dentin tissue compared with tactile control by a dentist,carious dentin tissue [8],better and more sensitive
same,staining of carious cavity,"carious dentin tissue [8]; 15-50 mM aqueous solution, cavity obtained with Carisolv",intense dark bluish colour
same,staining of surface judged caries free by tactile control,carious dentin tissue [8]; after Carisolv and hand-instrument excavation,very slight staining
same,staining after second Carisolv treatment and excavation,carious dentin tissue [8]; final staining attempt,no staining took place
